Reference: patent publication US11130756B2, “[1,2,4]Triazolo[4,3-A]pyridinyl substituted indole compounds” (BRISTOL-MYERS SQUIBB COMPANY, priority 2017, dated 2021)

Columns and labels:
Format in all cases: cell-based
human TLR7 = target: T1, human TLR7 (Homo sapiens, UniProt Q9NYK1); experiment: TLR7 inhibition reporter assay (HEK-Blue, SEAP); details: HEK-Blue cells overexpressing human TLR7, gardiquimod 7.5 μM, 22 hour incubation
T1 construct: host or cells: HEK-Blue cells
T1 sequence (Q9NYK1 27-1049): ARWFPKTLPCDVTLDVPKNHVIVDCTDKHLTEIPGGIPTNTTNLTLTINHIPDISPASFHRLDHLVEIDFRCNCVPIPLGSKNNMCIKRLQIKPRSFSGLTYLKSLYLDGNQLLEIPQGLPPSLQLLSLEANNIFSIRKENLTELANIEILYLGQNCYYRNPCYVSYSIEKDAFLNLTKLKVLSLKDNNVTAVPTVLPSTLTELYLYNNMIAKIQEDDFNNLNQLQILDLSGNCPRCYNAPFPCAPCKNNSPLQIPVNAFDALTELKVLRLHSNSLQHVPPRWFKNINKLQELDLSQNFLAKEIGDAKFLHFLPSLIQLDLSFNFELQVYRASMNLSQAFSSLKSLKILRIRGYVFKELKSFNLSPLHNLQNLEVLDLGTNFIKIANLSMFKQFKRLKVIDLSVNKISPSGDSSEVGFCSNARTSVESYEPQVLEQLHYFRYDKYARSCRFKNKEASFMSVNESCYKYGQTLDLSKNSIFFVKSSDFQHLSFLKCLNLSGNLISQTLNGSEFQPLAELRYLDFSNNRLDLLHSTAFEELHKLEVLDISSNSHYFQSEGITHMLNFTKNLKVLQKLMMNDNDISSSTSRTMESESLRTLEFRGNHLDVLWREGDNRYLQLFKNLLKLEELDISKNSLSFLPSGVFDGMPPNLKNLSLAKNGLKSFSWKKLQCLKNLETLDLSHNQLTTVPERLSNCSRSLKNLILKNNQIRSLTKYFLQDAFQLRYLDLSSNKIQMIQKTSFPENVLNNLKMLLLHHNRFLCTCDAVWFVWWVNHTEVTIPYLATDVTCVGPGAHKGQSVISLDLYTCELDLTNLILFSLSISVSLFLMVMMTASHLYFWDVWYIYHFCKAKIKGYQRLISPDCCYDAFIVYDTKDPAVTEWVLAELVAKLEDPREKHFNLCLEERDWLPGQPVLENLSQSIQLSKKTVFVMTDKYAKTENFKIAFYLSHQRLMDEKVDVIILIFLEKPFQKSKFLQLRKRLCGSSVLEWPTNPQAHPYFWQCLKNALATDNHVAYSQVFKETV
Method in brief: (§1)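 Dose–response from 0.05 nM to 50 μM was run in HEK-Blue human TLR7, TLR8 and TLR9 reporter cells. After 30 min at room temperature with compound, ligand was added (TLR7 gardiquimod 7.5 μM; TLR8 R848 15.9 μM; TLR9 ODN2006 5 nM) and SEAP measured next day, at 22 h.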

human TLR8 = target: T2, human TLR8 (Homo sapiens, UniProt Q9NR97); experiment: TLR8 inhibition reporter assay (HEK-Blue, SEAP); details: HEK-Blue cells overexpressing human TLR8, R848 15.9 μM, 22 hour incubation
T2 construct: host or cells: HEK-Blue cells
T2 sequence (Q9NR97 27-1041): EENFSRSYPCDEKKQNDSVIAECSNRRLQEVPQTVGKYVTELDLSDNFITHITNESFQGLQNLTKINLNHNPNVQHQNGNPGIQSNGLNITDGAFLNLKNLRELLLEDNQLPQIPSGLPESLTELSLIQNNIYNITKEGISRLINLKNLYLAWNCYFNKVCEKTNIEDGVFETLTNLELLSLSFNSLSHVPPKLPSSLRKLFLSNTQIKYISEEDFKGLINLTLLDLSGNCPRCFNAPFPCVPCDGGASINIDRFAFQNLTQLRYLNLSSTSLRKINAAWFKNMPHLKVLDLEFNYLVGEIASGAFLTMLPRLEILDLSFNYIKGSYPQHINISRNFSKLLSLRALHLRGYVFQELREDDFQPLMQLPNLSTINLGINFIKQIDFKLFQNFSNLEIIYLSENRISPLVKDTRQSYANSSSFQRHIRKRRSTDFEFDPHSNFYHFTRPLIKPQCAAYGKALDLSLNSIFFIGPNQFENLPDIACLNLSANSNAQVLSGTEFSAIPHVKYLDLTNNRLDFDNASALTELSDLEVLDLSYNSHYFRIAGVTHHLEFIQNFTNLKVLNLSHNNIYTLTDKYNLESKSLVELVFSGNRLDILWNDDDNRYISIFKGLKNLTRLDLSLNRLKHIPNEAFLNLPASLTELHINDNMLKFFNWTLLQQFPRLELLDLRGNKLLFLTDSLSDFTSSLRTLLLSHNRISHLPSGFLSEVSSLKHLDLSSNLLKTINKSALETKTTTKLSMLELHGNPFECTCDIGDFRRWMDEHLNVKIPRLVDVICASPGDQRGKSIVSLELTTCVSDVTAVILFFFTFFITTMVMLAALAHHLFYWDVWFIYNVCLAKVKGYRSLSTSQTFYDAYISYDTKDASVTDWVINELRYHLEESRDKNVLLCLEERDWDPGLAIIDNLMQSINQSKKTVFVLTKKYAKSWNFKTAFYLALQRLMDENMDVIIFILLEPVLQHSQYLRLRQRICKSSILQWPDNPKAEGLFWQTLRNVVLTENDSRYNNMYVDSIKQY
Method in brief: as §1

human TLR9 = target: T3, human TLR9 (Homo sapiens, UniProt Q9NR96); experiment: TLR9 inhibition reporter assay (HEK-Blue, SEAP); details: HEK-Blue cells overexpressing human TLR9, ODN2006 5 nM, 22 hour incubation
T3 construct: host or cells: HEK-Blue cells
T3 sequence (Q9NR96 26-1032): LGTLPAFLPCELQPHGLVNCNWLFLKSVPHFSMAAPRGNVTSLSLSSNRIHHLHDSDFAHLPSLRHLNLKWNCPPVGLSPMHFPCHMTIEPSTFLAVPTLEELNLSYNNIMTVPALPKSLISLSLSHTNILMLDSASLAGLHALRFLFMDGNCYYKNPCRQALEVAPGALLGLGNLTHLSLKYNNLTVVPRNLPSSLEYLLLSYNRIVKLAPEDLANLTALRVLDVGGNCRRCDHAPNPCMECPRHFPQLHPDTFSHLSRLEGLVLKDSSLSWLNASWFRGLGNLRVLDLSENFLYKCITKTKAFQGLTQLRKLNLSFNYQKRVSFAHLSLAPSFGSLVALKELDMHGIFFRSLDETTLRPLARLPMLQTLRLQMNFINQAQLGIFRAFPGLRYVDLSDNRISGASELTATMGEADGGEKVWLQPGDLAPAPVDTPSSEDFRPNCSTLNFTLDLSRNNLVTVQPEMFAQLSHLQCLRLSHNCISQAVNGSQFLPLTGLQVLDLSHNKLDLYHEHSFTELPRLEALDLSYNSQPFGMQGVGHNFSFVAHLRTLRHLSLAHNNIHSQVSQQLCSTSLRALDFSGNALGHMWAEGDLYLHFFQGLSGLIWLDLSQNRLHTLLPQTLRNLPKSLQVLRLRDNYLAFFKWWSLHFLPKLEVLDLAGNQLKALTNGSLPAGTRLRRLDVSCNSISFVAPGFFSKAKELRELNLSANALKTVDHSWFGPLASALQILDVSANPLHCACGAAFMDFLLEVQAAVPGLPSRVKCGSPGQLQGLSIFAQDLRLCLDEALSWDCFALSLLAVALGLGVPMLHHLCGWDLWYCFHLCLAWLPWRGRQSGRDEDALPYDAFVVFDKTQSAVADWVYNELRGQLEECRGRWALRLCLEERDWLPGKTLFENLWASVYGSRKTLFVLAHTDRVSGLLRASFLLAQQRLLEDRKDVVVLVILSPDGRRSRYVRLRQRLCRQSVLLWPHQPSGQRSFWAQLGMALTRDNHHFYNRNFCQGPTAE
Method in brief: as §1

`COc1cc(-c2[nH]c3ccc(C4CCN(C5CCOC5)CC4)cc3c2C(C)C)cn2cnnc12` (stereo not drawn) [Example 94, 6-(3-isopropyl-5-(1-(tetrahydrofuran-3-yl)piperidin-4-yl)-1H-indol-2-yl)-8-methoxy-[1,2,4]triazolo[4,3-a]pyridine] gave an IC50 (human TLR7) of 0.6 nM, an IC50 (human TLR8) of 11.9 nM and an IC50 (human TLR9) of 914 nM.
`COc1cc(-c2[nH]c3ccc(C4CCN(C5CCC(F)(F)CC5)CC4)cc3c2C(C)C)cn2cnnc12` [Example 95, 6-(5-(1-(4,4-difluorocyclohexyl)piperidin-4-yl)-3-isopropyl-1H-indol-2-yl)-8-methoxy-[1,2,4] triazolo[4,3-a]pyridine] gave an IC50 (human TLR7) of 0.7 nM, an IC50 (human TLR8) of 20.5 nM and an IC50 (human TLR9) of 2080 nM.
`COc1cc(-c2[nH]c3ccc(C4CCN(C)CC4)cc3c2C(C)C)cn2cnnc12` [Example 96, 6-(3-isopropyl-5-(1-methylpiperidin-4-yl)-1H-indol-2-yl)-8-methoxy-[1,2,4]triazolo[4,3-a)pyridine] gave an IC50 (human TLR7) of 1.2 nM, an IC50 (human TLR8) of 35.8 nM and an IC50 (human TLR9) of 376 nM.
Work on `COc1cc(-c2[nH]c3ccc(C4CCN(C(C)C)CC4)cc3c2C(C)C)cn2cnnc12` [Example 97, 6-(3-isopropyl-5-(1-isopropylpiperidin-4-yl)-1H-indol-2-yl)-8-methoxy-[1,2,4]triazolo[4,3-a]pyridine] yielded an IC50 (human TLR7) of 2.3 nM, an IC50 (human TLR8) of 56.1 nM and an IC50 (human TLR9) of 768 nM.
Work on `Cc1c(-c2[nH]c3ccc(C4CCN(C)CC4)cc3c2C(C)C)cn2cnnc2c1C` [Example 98, 6-(3-isopropyl-5-(1-methylpiperidin-4-yl)-1H-indol-2-yl)-7,8-dimethyl-[1,2,4]triazolo[4,3-a]pyridine] yielded an IC50 (human TLR7) of 1 nM, an IC50 (human TLR8) of 12.1 nM and an IC50 (human TLR9) of 1790 nM.
Work on `Cc1c(-c2[nH]c3ccc(C4CCN(C(C)C)CC4)cc3c2C(C)C)cn2cnnc2c1C` [Example 99, 6-(3-isopropyl-5-(1-isopropylpiperidin-4-yl)-1H-indol-2-yl)-7,8-dimethyl-[1,2,4]triazolo [4,3-a]pyridine] yielded an IC50 (human TLR7) of 1.7 nM, an IC50 (human TLR8) of 8.3 nM and an IC50 (human TLR9) of 2220 nM.
In the case of `Cc1c(-c2[nH]c3ccc(C4CCN(C5CC(C)(C)OC(C)(C)C5)CC4)cc3c2C(C)C)cn2cnnc2c1C` [Example 100, 6-(3-isopropyl-5-(1-(2,2,6,6-tetramethyltetrahydro-2H-pyran-4-yl)piperidin-4-yl)-1H-indol-2-yl)-7,8-dimethyl-[1,2,4]triazolo[4,3-a]pyridine], the IC50 (human TLR7) is reported as 13.7 nM, the IC50 (human TLR8) is reported as 31.6 nM and the IC50 (human TLR9) is reported as 4440 nM.
`Cc1c(-c2[nH]c3ccc(C4CCN(C5CCC(F)(F)CC5)CC4)cc3c2C(C)C)cn2cnnc2c1C` [Example 101, 6-(5-(1-(4,4-difluorocyclohexyl)piperidin-4-yl)-3-isopropyl-1H-indol-2-yl)-7,8-dimethyl-[1,2,4] triazolo[4,3-a]pyridine] was tested, and the IC50 (human TLR7) was 12.3 nM, the IC50 (human TLR8) was 12.4 nM and the IC50 (human TLR9) was 1440 nM.
Work on `Cc1cc(-c2[nH]c3ccc(C4CCN(C(=O)CN(C)C)CC4)cc3c2C(C)C)cn2cnnc12` [Example 104, 2-(dimethylamino)-1-(4-(3-isopropyl-2-(8-methyl-[1,2,4]triazolo[4,3-a]pyridin-6-yl)-1H-indol-5-yl)piperidin-1-yl)ethanone] yielded an IC50 (human TLR7) of 2.5 nM, an IC50 (human TLR8) of 14.6 nM and an IC50 (human TLR9) of 917 nM.
With `CC(C)c1c(-c2ccc3nncn3c2)[nH]c2ccc(C3CCN(C(=O)CN(C)C)CC3)cc12` [Example 105, 1-(4-(2-([1,2,4]triazolo[4,3-a]pyridin-6-yl)-3-isopropyl-1H-indol-5-yl)piperidin-1-yl)-2-(dimethylamino)ethan-1-one] the IC50 (human TLR7) was 5.9 nM, the IC50 (human TLR8) was 134 nM and the IC50 (human TLR9) was 188 nM.
`Cc1nnc2ccc(-c3[nH]c4ccc(C5CCN(C(=O)CN(C)C)CC5)cc4c3C(C)C)cn12` [Example 106, 2-(dimethylamino)-1-(4-(3-isopropyl-2-(3-methyl-[1,2,4]triazolo[4,3-a]pyridin-6-yl)-1H-indol-5-yl)piperidin-1-yl)ethan-1-one] showed an IC50 (human TLR7) of 43 nM, an IC50 (human TLR8) of 39.1 nM and an IC50 (human TLR9) of 382 nM.
Work on `Cc1cc2nncn2cc1-c1[nH]c2ccc(C3CCN(C(=O)CN(C)C)CC3)cc2c1C(C)C` [Example 107, 2-(dimethylamino)-1-(4-(3-isopropyl-2-(7-methyl-[1,2,4]triazolo[4,3-a]pyridin-6-yl)-1H-indol-5-yl)piperidin-1-yl)ethan-1-one] yielded an IC50 (human TLR7) of 40.7 nM, an IC50 (human TLR8) of 591 nM and an IC50 (human TLR9) of 918 nM.
With `Cc1c(-c2[nH]c3ccc(C4CCN(C(=O)CN(C)C)CC4)cc3c2C(C)C)ccc2nncn12` [Example 108, 2-(dimethylamino)-1-(4-(3-isopropyl-2-(5-methyl-[1,2,4]triazolo[4,3-a]pyridin-6-yl)-1H-indol-5-yl)piperidin-1-yl)ethan-1-one] the IC50 (human TLR7) was 78.7 nM, the IC50 (human TLR8) was 30.4 nM and the IC50 (human TLR9) was 216 nM.
For `Cc1c(-c2[nH]c3ccc(C4CC(C)N(CC(=O)N(C)C)C(C)C4)cc3c2C(C)C)cn2cnnc2c1C` (stereo not drawn) [Example 112, 2-(4-(2-(7,8-dimethyl-[1,2,4]triazolo[4,3-a]pyridin-6-yl)-3-isopropyl-1H-indol-5-yl)-2,6-dimethylpiperidin-1-yl)-N,N-dimethylacetamide], the IC50 (human TLR7) was 20.6 nM, the IC50 (human TLR8) was 121 nM and the IC50 (human TLR9) was 7420 nM.
